According to patent US8980542B2, “Arginine-containing compositions and methods for treating red blood cells” (Viacell, LLC, priority 2010, dated 2015):
Blank lines part the entries; values can stand above or below the compound they belong to.

What was measured:
stored RBCs = assay: 2,3-DPG level of stored RBCs after incubation with storage and/or rejuvenating composition (Roche 2,3-DPG kit); type: cell-based; conditions: 60 minutes at 37° C.
Protocol: A storage and/or rejuvenating composition that includes D-ribose, inosine, sodium pyruvate, and inorganic phosphate, all at a 300 mM concentration as a slurry was prepared. When used to store and/or rejuvenate RBCs, the slurry is diluted 30-fold to a final concentration of 10 mM to form a solution. […] In a study, RBCs were collected and stored for an average of 21 days at 4° C. according to standard blood banking practice. Various RBC storage and/or rejuvenating compositions were added to the 21-day old stored RBCs and held at 37° C. for one to four hours before being tested for 2,3-DPG concentrations. […] A normal 2,3-DPG concentration of RBC immediately upon harvest is 4.0 μmol/ml. […] An increase to 1.0 μmol/ml is considered a significant improvement.
Experimental protocols were designed to find methods to increase the solubility of inosine. […] A storage and/or rejuvenating composition including 300 mM each of inosine, L-arginine, sodium pyruvate, D-ribose, and inorganic phosphate was diluted 30-fold into 21-day old stored RBCs. One set of stored blood samples was incubated for 60 minutes at room temperature and another was incubated for 60 minutes at 37° C.

[1] = Solubility of nucleoside in the composition; type: physicochemical; conditions: equimolecular solution with L-arginine, room temperature

Structure (SMILES): Nc1nc2c(ncn2[C@@H]2O[C@H](CO)[C@@H](O)[C@H]2O)c(=O)[nH]1 [Guanosine]
Rejuvenation (stored RBCs; guanosine with 10 mM each inorganic phosphate and D-ribose, no sodium pyruvate): observed

concentration at which inosine remained in solution [1]: above 50 mM
Structure (SMILES): OC[C@H]1O[C@@H](n2cnc3c(O)ncnc32)[C@H](O)[C@@H]1O [inosine]

Structure (SMILES): O=C[C@H](O)[C@H](O)[C@H](O)COP(=O)(O)O [ribose-5-phosphate]
Rejuvenation (stored RBCs; inosine replaced by varying concentrations of the substance in composition with 10 mM each D-ribose, sodium pyruvate, inorganic phosphate): not observed
